Source: patent publication US20100317630A1, “NOVEL HETEROCYCLIC COMPOUNDS AS MGLU5 ANTAGONISTS” (RECORDATI IRELAND LIMITED, priority 2009, published 2010)

Columns and labels:
mGlu5 receptor = molecular target: T1, mGlu5 receptor (Rattus norvegicus, UniProt P31424); assay: Radioligand binding assay at metabotropic glutamate receptor 5 in rat brain ([3H]MPEP, forebrain membranes); settings: 4 nM [3H]MPEP, read-out: affinity (Ki) for mGlu5 receptor
T1 construct: from tissue; host or cells: forebrain (cortex, striatum and hippocampus) of male Sprague Dawley rats
T1 sequence (P31424 21-1203): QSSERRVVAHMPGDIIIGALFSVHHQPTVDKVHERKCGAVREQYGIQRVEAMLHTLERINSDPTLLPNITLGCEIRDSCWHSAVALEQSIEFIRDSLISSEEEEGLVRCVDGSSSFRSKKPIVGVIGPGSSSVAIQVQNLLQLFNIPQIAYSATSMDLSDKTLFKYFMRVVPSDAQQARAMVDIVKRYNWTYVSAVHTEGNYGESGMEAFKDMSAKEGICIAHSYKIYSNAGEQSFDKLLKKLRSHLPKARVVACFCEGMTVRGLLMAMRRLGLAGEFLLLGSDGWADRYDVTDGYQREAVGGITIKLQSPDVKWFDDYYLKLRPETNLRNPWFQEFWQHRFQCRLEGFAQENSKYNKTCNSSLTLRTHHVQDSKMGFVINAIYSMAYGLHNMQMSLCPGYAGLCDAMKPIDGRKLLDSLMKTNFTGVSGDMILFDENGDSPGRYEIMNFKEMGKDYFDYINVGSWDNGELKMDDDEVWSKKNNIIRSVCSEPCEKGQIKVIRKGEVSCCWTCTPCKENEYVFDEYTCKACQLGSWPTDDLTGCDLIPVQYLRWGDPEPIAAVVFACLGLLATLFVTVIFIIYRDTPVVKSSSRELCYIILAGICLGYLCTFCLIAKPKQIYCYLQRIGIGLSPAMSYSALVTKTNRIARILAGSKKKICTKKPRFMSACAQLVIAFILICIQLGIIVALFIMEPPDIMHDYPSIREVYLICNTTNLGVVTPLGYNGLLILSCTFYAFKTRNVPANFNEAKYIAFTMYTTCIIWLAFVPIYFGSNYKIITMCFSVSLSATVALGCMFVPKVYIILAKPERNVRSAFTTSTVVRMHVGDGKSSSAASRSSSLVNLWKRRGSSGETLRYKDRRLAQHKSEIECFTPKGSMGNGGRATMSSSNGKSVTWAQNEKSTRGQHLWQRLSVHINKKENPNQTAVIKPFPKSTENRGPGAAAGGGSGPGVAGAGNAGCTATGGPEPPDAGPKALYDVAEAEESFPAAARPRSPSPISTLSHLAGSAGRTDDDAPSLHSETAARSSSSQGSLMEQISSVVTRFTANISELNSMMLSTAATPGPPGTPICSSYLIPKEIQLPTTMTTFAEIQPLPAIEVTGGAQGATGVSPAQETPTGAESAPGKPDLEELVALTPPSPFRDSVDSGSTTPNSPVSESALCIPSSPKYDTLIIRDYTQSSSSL
Protocol: Radioligand Binding Assay at metabotropic glutamate receptor 5 in rat brain.
a) Membrane preparation: male Sprague Dawley rats (200-300 g, Charles River, Italy) were killed by cervical dislocation and the forebrain (cortex, striatum and hippocampus) was homogenized (2×20 sec) in 50 vols of cold 50 mM Tris buffer pH 7.4, using a Politron homogenizer (Kinematica). Homogenates were centrifuged at 48000×g for 15 min, resuspended in 50 vols of the same buffer, incubated at 37° C. for 15 min and centrifuged and resuspended two more times. The final pellets were frozen and stored at −80° C. until use.
b) Binding assay: pellets from rat forebrain were resuspended in 100 vols of 20 mM HEPES, 2 mM MgCl2, 2 mM CaCl2, pH 7.4. The membranes were incubated in a final volume of 1 ml for 60 min at 25° C. with 4 nM [^3H]MPEP in the absence or presence of competing drugs. Non-specific binding was determined in the presence of 10 μM MPEP (Spooren W. et al., Trends Pharmacol Sci. 22, 331-337, 2001). The incubation was stopped by the addition of cold Tris buffer pH 7.4 and rapid filtration through 0.5% polyethyleneimine pretreated Filtermat 1204-401 (Wallac) filters. The filters were then washed with cold buffer and the radioactivity retained on the filters was counted by liquid scintillation spectrometry. […]

conscious rats = assay: Effect on cystometry in conscious rats (bladder volume capacity); format: in vivo, rat
Protocol: Male Sprague-Dawley rats [Crl: CD® (SD) IGS BR] of 300-400 g b.w. supplied by Charles River Italia were used. The animals were housed with free access to food and water and maintained on a forced 12-hour-light/12-hour-dark cycle at 22-24° C. of temperature, except during the experiment. To quantify urodynamic parameters in conscious rats, cystometrographic studies were performed according to the procedure previously reported (Guarneri et al., Pharmacol. Res. 24: 175, 1991).
Briefly, the rats were anaesthetised by intraperitoneal administration of 3 ml/kg of Equithensin solution (pentobarbital 30 mg/kg and chloral hydrate 125 mg/kg) and placed in a supine position. An approximately 10 mm long midline incision was made in the shaved and cleaned abdominal wall. The urinary bladder was gently freed from adhering tissues, emptied and then cannulated via an incision in the bladder body, using a polyethylene cannula (0.58 mm internal diameter, 0.96 mm external diameter) which was permanently sutured with silk thread. […]
On the day of the experiment, the rats were placed in modified Bollman cages, i.e., restraining cages that were large enough to permit the rats to adopt a normal crouched posture, but narrow enough to prevent turning around. […] The intraluminal-pressure signal during infusion of saline into the bladder (cystometrogram) was continuously recorded on a polygraph (Rectigraph-8K San-ei with BM614/2 amplifier from Biomedica Mangoni) or stored on PC by data acquisition system (PowerLab, Chart 4 software, AD Instruments). From the cystometrogram, bladder volume capacity (BVC) was evaluated. […] Basal BVC value was evaluated as the mean of the values observed in the cystometrograms recorded in an initial period of 30-60 minutes. […] The bladder infusion restarted and changes in BVC were evaluated from the mean values obtained in the cystometrograms observed during 1, 2, and 3 hours after treatment. […]
Each experimental group was composed of 4-11 animals. All data were expressed as mean±standard error. […]

SMILES	Ki (mGlu5 receptor) [nM]	increase of bladder volume capacity (conscious rats; 1 mg/kg orally)	increase of bladder volume capacity (conscious rats; 3 mg/kg orally, statistically significant from the vehicle group after 3 hours from treatment)	MED (Minimal Effective Dose that induces statistically significant increase of bladder volume capacity) (conscious rats; oral)
Cc1ccc([N+](=O)[O-])c(N2CCC(=C/C=C/c3ccccc3)CC2)n1 [Example 1, 6-Methyl-3-nitro-2-[4-[(E)-3-phenylprop-2-enylidene]-1-piperidyl]pyridine]	1.42			
Cc1nc(C#Cc2cccnc2)cs1 [MTEP]		slight increase	sustained increase	3
